Where “and” joins values, the source holds several entries; their conditions need not be identical. Identical values can stand only once. Inconclusive results are not listed. Residues, ends and D or L forms follow the SMILES beside them. *: point of attachment. Trt = c1ccc(C(c2ccccc2)(c2ccccc2)*)cc1; Cbz = O=C(OCc1ccccc1)*; Bn = c1ccc(C*)cc1; βAla = NCCC(=O)O
Tested on: CD8F1 mice, subcutaneous mammary adenocarcinoma, T/C%
Test: NCI In Vivo Anticancer Drug Screen. Data for tumor model Mammary Adenocarcinoma CD8F1 (subcutaneous) in CD8F1
Conditions: higher = larger tumour
Procedure, shortened: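 Compound-treated versus vehicle-treated mice with transplantable tumors; survival or tumor size compared as T/C.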

[1] = endpoint: median tumor weight change, dose: 500.0 mg/kg/injection, schedule: Q01DX001 (ip), vehicle: Klucel (hydroxypropylcellulose) (HPC)
[2] = endpoint: median tumor weight change, dose: 1000.0 mg/kg/injection, schedule: Q01DX001 (ip), vehicle: Klucel (hydroxypropylcellulose) (HPC)
[3] = endpoint: median tumor weight change, dose: 2000.0 mg/kg/injection, schedule: Q01DX001 (ip), vehicle: Klucel (hydroxypropylcellulose) (HPC)
[4] = endpoint: median tumor weight change, dose: 50.0 mg/kg/injection, schedule: Q01DX001 (ip), vehicle: saline with Tween-80
[5] = endpoint: median tumor weight change, dose: 200.0 mg/kg/injection, schedule: Q01DX001 (ip), vehicle: saline with Tween-80
[6] = endpoint: median tumor weight change, dose: 250.0 mg/kg/injection, schedule: Q01DX001 (ip), vehicle: Klucel (hydroxypropylcellulose) (HPC)
[7] = endpoint: median tumor weight (est.), dose: 6.0 mg/kg/injection, schedule: Q07DX005 (ip), vehicle: saline with Tween-80

In the case of C[C@]12CCC(=O)C=C1CC[C@@H]1[C@@H]2C(=O)C[C@@]2(C)[C@H]1CC[C@]2(O)C(=O)CO, the T/C (endpoint: median tumor weight (est.), dose: 2.0 mg/kg/injection, schedule: Q07DX005 (ip), vehicle: Klucel (hydroxypropylcellulose) (HPC)) is reported as 68 % of control, the T/C (endpoint: median tumor weight (est.), dose: 4.0 mg/kg/injection, schedule: Q07DX005 (ip), vehicle: Klucel (hydroxypropylcellulose) (HPC)) is reported as 91 % of control and the T/C (endpoint: median tumor weight (est.), dose: 8.0 mg/kg/injection, schedule: Q07DX005 (ip), vehicle: Klucel (hydroxypropylcellulose) (HPC)) is reported as 97 % of control. For the same compound, the T/C (endpoint: median tumor weight (est.), dose: 16.0 mg/kg/injection, schedule: Q07DX005 (ip), vehicle: Klucel (hydroxypropylcellulose) (HPC)) was 71 % of control, the T/C (endpoint: median tumor weight (est.), dose: 25.0 mg/kg/injection, schedule: Q07DX005 (ip), vehicle: Klucel (hydroxypropylcellulose) (HPC)) was 80 % of control and the T/C (endpoint: median tumor weight (est.), dose: 50.0 mg/kg/injection, schedule: Q07DX005 (ip), vehicle: Klucel (hydroxypropylcellulose) (HPC)) was 67 % of control. For the same compound, the T/C (endpoint: median tumor weight (est.), dose: 200.0 mg/kg/injection, schedule: Q07DX005 (ip), vehicle: Klucel (hydroxypropylcellulose) (HPC)) was 35 % of control and 58 % of control, the T/C [1] was 46 % of control and 64 % of control and the T/C [2] was 33 % of control and 49 % of control. For the same compound, the T/C [3] was 24 % of control and 44 % of control and the T/C (endpoint: median tumor weight change, dose: 4000.0 mg/kg/injection, schedule: Q01DX001 (ip), vehicle: Klucel (hydroxypropylcellulose) (HPC)) was -18 % of control.
C=C/C(C)=C/[C@H](C)C(=O)C[C@H](O)CC1CC(=O)NC(=O)C1 was tested, and the T/C (endpoint: median tumor weight (est.), dose: 6.25 mg/kg/injection, schedule: Q07DX005 (ip), vehicle: saline with Tween-80) was 41 % of control, the T/C (endpoint: median tumor weight (est.), dose: 12.5 mg/kg/injection, schedule: Q07DX005 (ip), vehicle: saline with Tween-80) was 62 % of control and the T/C (endpoint: median tumor weight (est.), dose: 100.0 mg/kg/injection, schedule: Q07DX005 (ip), vehicle: saline with Tween-80) was 157 % of control. The T/C (endpoint: median tumor weight (est.), dose: 200.0 mg/kg/injection, schedule: Q07DX005 (ip), vehicle: saline with Tween-80) was 50 % of control.
With Oc1ccccc1C=NCCC[N-]CCCN=Cc1ccccc1O.[Co] the T/C (endpoint: median tumor weight (est.), dose: 12.5 mg/kg/injection, schedule: Q07DX005 (ip), vehicle: suspension in saline) was 162 % of control, the T/C (endpoint: median tumor weight (est.), dose: 25.0 mg/kg/injection, schedule: Q07DX005 (ip), vehicle: suspension in saline) was 223 % of control and the T/C (endpoint: median tumor weight (est.), dose: 50.0 mg/kg/injection, schedule: Q07DX005 (ip), vehicle: suspension in saline) was 180 % of control. The T/C (endpoint: median tumor weight (est.), dose: 100.0 mg/kg/injection, schedule: Q07DX005 (ip), vehicle: suspension in saline) was 97 % of control.
With O=C1N[C@H]2[C@H](O)[C@H](O)[C@@H](O)[C@H](O)[C@@H]2c2cc3c(c(O)c21)OCO3 the T/C (endpoint: median tumor weight change, dose: 1.25 mg/kg/injection, schedule: Q01DX005 (ip), vehicle: saline + alcohol) was 110 % of control, the T/C (endpoint: median tumor weight change, dose: 2.5 mg/kg/injection, schedule: Q01DX005 (ip), vehicle: saline + alcohol) was 66 % of control and the T/C (endpoint: median tumor weight change, dose: 5.0 mg/kg/injection, schedule: Q01DX005 (ip), vehicle: saline + alcohol) was 48 % of control.
With CCCN1COC(OCC)C(C)(C)C1 (configuration not stated) the T/C [4] was 102 % of control, the T/C (endpoint: median tumor weight change, dose: 100.0 mg/kg/injection, schedule: Q01DX001 (ip), vehicle: saline with Tween-80) was 85 % of control and the T/C (endpoint: median tumor weight change, dose: 125.0 mg/kg/injection, schedule: Q01DX001 (ip), vehicle: saline with Tween-80) was 66 % of control. For the same compound, the T/C [5] was 84 % of control, the T/C (endpoint: median tumor weight change, dose: 250.0 mg/kg/injection, schedule: Q01DX001 (ip), vehicle: saline with Tween-80) was 47 % of control and the T/C (endpoint: median tumor weight change, dose: 500.0 mg/kg/injection, schedule: Q01DX001 (ip), vehicle: saline with Tween-80) was 47 % of control.
In the case of COC(=O)C(CSC(c1ccccc1)(c1ccccc1)c1ccccc1)NC(=O)C(CSCc1ccccc1)NC(=O)CCNC(=O)OCc1ccccc1 (configuration not stated) ({Cbz-βAla}-Cys(Bn)-Cys(Trt)-OMe; configuration not given here), the T/C [6] is reported as 107 % of control, the T/C [1] is reported as 95 % of control and the T/C [2] is reported as 90 % of control. For the same compound, the T/C [3] was 84 % of control.
[CH3][Sn]([CH3])([Cl])[S]CCN was tested, and the T/C (endpoint: median tumor weight change, dose: 12.5 mg/kg/injection, schedule: Q01DX001 (ip), vehicle: saline) was 108 % of control.
With CC[PH+](CC)CC[S-].CC[PH+](CC)CC[S-].[Au+].[Au+] the T/C (endpoint: median tumor weight change, dose: 100.0 mg/kg/injection, schedule: Q01DX001 (ip), vehicle: Klucel (hydroxypropylcellulose) (HPC)) was 29 % of control and 34 % of control and the T/C (endpoint: median tumor weight change, dose: 200.0 mg/kg/injection, schedule: Q01DX001 (ip), vehicle: Klucel (hydroxypropylcellulose) (HPC)) was 24 % of control.
For C[n+]1cccc(NC(=O)c2ccc(NC(=O)C34CCC(C(=O)Nc5ccc(C(=O)Nc6ccc[n+](C)c6)cc5)(CC3)CC4)cc2)c1, the T/C [4] was 57 % of control and 78 % of control (2×) and the T/C [5] was -66 % of control.
For COc1cc2cc(c1Cl)N1CC(O)C(C)(O)C(=O)NC(C)C(=O)OC(CC1=O)C1(C)OC1C(C)C1CC(O)(NC(=O)O1)C(OC)/C=C\C=C(\C)C2OC (configuration not stated), the T/C (endpoint: median tumor weight change, dose: 8.0 micrograms/kg/injection, schedule: Q01DX001 (ip), vehicle: distilled water + alcohol) was 101 % of control, the T/C (endpoint: median tumor weight change, dose: 16.0 micrograms/kg/injection, schedule: Q01DX001 (ip), vehicle: distilled water + alcohol) was 111 % of control and the T/C (endpoint: median tumor weight change, dose: 64.0 micrograms/kg/injection, schedule: Q01DX001 (ip), vehicle: distilled water + alcohol) was 121 % of control.
In the case of Oc1ccc(CCl)c2cccnc12, the T/C (endpoint: median tumor weight change, dose: 62.5 mg/kg/injection, schedule: Q01DX001 (ip), vehicle: saline) is reported as 54 % of control and the T/C (endpoint: median tumor weight change, dose: 125.0 mg/kg/injection, schedule: Q01DX001 (ip), vehicle: saline) is reported as 78 % of control.
In the case of C/C=C(\Cl)C1=CC(=O)C23CC2C2(C)COC1(O)C3(O)O2 (configuration not stated), the T/C [7] is reported as 90 % of control.
CCCCCCCCCCS(=O)CC(CO)NC(=O)/C=C/c1c(C)[nH]c(=O)[nH]c1=O (configuration not stated) was tested, and the T/C (endpoint: median tumor weight (est.), dose: 0.75 mg/kg/injection, schedule: Q07DX005 (ip), vehicle: saline with Tween-80) was 85 % of control, the T/C (endpoint: median tumor weight (est.), dose: 1.5 mg/kg/injection, schedule: Q07DX005 (ip), vehicle: saline with Tween-80) was 100 % of control and 106 % of control and the T/C (endpoint: median tumor weight (est.), dose: 3.0 mg/kg/injection, schedule: Q07DX005 (ip), vehicle: saline with Tween-80) was 124 % of control and 113 % of control. The T/C [7] was 76 % of control, the T/C (endpoint: median tumor weight (est.), dose: 12.0 mg/kg/injection, schedule: Q07DX005 (ip), vehicle: saline with Tween-80) was 23 % of control and the T/C (endpoint: median tumor weight (est.), dose: 48.0 mg/kg/injection, schedule: Q07DX005 (ip), vehicle: saline with Tween-80) was 76 % of control.
In the case of O=CC(NC(=O)N(CCCl)N=O)C(O)C(O)C(O)CO (configuration not stated), the T/C (endpoint: mean tumor weight, dose: 1.5 mg/kg/injection, schedule: Q02DX008 (ip), vehicle: saline) is reported as 58 % of control, the T/C (endpoint: mean tumor weight, dose: 3.0 mg/kg/injection, schedule: Q02DX008 (ip), vehicle: saline) is reported as 24 % of control and the T/C (endpoint: mean tumor weight, dose: 6.0 mg/kg/injection, schedule: Q02DX008 (ip), vehicle: saline) is reported as 31 % of control. The T/C (endpoint: median tumor weight (est.), dose: 1.5 mg/kg/injection, schedule: Q07DX005 (ip), vehicle: saline) was 175 % of control, the T/C (endpoint: median tumor weight (est.), dose: 3.0 mg/kg/injection, schedule: Q07DX005 (ip), vehicle: saline) was 107 % of control and the T/C (endpoint: median tumor weight (est.), dose: 6.0 mg/kg/injection, schedule: Q07DX005 (ip), vehicle: saline) was 53 % of control. For the same compound, the T/C (endpoint: median tumor weight (est.), dose: 12.0 mg/kg/injection, schedule: Q07DX005 (ip), vehicle: saline) was 14 % of control and the T/C (endpoint: median tumor weight (est.), dose: 24.0 mg/kg/injection, schedule: Q07DX005 (ip), vehicle: saline) was 13 % of control.
In the case of CCCCNC(C)[C@]1(O)Cc2c(O)c3c(c(O)c2[C@@H](OC2CC(N)C(O)C(C)O2)C1)C(=O)c1c(OC)cccc1C3=O (some centres not stated), the T/C (endpoint: median tumor weight (est.), dose: 2.67 mg/kg/injection, schedule: Q07DX005 (ip), vehicle: water) is reported as 89 % of control, the T/C (endpoint: median tumor weight (est.), dose: 4.0 mg/kg/injection, schedule: Q07DX005 (ip), vehicle: water) is reported as 74 % of control and the T/C (endpoint: median tumor weight (est.), dose: 6.0 mg/kg/injection, schedule: Q07DX005 (ip), vehicle: water) is reported as 47 % of control.
CN(C)CC(Cl)CCl (configuration not stated) was tested, and the T/C (endpoint: mean tumor weight, dose: 50.0 mg/kg/injection, schedule: Q07DX009 (ip), vehicle: saline) was 39 % of control, the T/C (endpoint: mean tumor weight, dose: 100.0 mg/kg/injection, schedule: Q07DX006 (ip), vehicle: saline) was 88 % of control and the T/C (endpoint: mean tumor weight, dose: 100.0 mg/kg/injection, schedule: Q07DX009 (ip), vehicle: saline) was 94 % of control. For the same compound, the T/C (endpoint: mean tumor weight, dose: 200.0 mg/kg/injection, schedule: Q07DX006 (ip), vehicle: saline) was 107 % of control, the T/C (endpoint: mean tumor weight, dose: 200.0 mg/kg/injection, schedule: Q07DX009 (ip), vehicle: saline) was 24 % of control and the T/C (endpoint: median tumor weight (est.), dose: 12.5 mg/kg/injection, schedule: Q07DX005 (ip), vehicle: saline) was 92 % of control. The T/C (endpoint: median tumor weight (est.), dose: 25.0 mg/kg/injection, schedule: Q07DX005 (ip), vehicle: saline) was 97 % of control and 117 % of control, the T/C (endpoint: median tumor weight (est.), dose: 200.0 mg/kg/injection, schedule: Q07DX005 (ip), vehicle: saline) was 62 % of control and 73 % of control and the T/C (endpoint: median tumor weight (est.), dose: 400.0 mg/kg/injection, schedule: Q07DX005 (ip), vehicle: saline) was 37 % of control.
For CCCCCNc1ncnc2c(C)[nH]nc12, the T/C (endpoint: median tumor weight change, dose: 62.5 mg/kg/injection, schedule: Q01DX001 (ip), vehicle: Klucel (hydroxypropylcellulose) (HPC)) was 101 % of control, the T/C (endpoint: median tumor weight change, dose: 125.0 mg/kg/injection, schedule: Q01DX001 (ip), vehicle: Klucel (hydroxypropylcellulose) (HPC)) was 89 % of control and the T/C [6] was 71 % of control.
